Measurements as given in the SangsterLogP compilation.

Test: method code SF-AS, from DOI: 10.1248/cpb.24.61
Settings: pH 7.4

Compound | logD
Cc1c(NC(C)C(=O)N(C)C)c(=O)n(-c2ccccc2)n1C (configuration not stated) | 0.35
Cc1c(NC(N)=O)c(=O)n(-c2ccccc2)n1C | -0.92
CCC(C(=O)c1c(C)n(C)n(-c2ccccc2)c1=O)N(C)C (configuration not stated) | -0.24
Cc1c(N(C)C(C)C(=O)N(C)C)c(=O)n(-c2ccccc2)n1C (configuration not stated) | 0.69

Now from value to compound:

logD | Compound
-0.78 | Cc1c(C(=O)C(C)N(C)C)c(=O)n(-c2ccccc2)n1C (configuration not stated)
-0.95 | Cc1c(C(=O)CN(C)C)c(=O)n(-c2ccccc2)n1C
-0.37 | Cc1c(NC(=O)CN(C)C)c(=O)n(-c2ccccc2)n1C
